Assay results from PMC3735853 (Journal of biomolecular screening, 2013).
Like-named read-outs stand apart in the source and are kept apart here.

How the values were obtained:
hV2R[L^83Q] = hV2R[L^83Q] (Homo sapiens, UniProt P30518, L83Q); assay: uHTS optimized primary V2R pharmacoperone assay; assay type: cell-based; settings: for LOPAC Screen Average %Response +/−Std Dev: single concentration of 6 μM (0.4% DMSO), normalized to 100 nM SR121463 (positive) and DMSO (negative), triplicate
V2R = settings: cited from earlier work

| LOPAC Screen Average %Response +/−Std Dev (hV2R[L^83Q]) | lowest level detectable in the assay system (hV2R[L^83Q]; no-wash protocol) [nM] | EC50 (hV2R[L^83Q]; read-out: EC50 (pharmacoperone rescue), presence of 1 μM vasopressin, no-wash protocol, absence of doxycycline (n=4)) [nM] | SMILES | EC50 (hV2R[L^83Q]) [nM] | Ki (V2R; read-out: Ki (antagonist), no reference given) [nM] | Ki (V2R; read-out: Ki of SR121463 (literature value), used to perform the fit) [nM] |
| --- | --- | --- | --- | --- | --- | --- |
| 104+/−0% |  |  | C=C[C@@]1(C)CC(=O)[C@]2(O)[C@@]3(C)[C@@H](O)CCC(C)(C)[C@@H]3[C@H](O)[C@H](OC(C)=O)[C@@]2(C)O1 [Forskolin] | 430 |  |  |
| 74+/−2% |  |  | Cc1ccccc1N1CCN(S(=O)(=O)C[C@]23CC[C@H](C[C@@H]2NC(=O)[C@@H](N)CCS(C)(=O)=O)C3(C)C)CC1 [L-368,899] |  |  |  |
|  | 1 | 1.97 ± 0.25 | CCOc1ccc2c(c1)C1(CCC(OCCN3CCOCC3)CC1)C(=O)N2S(=O)(=O)c1ccc(C(=O)NC(C)(C)C)cc1OC (stereo not drawn) [SR121463] |  | ~1 | 0.94 |

| SMILES | LOPAC Screen Average %Response +/−Std Dev (hV2R[L^83Q]) | lowest level detectable in the assay system (hV2R[L^83Q]; no-wash protocol) [nM] | EC50 (hV2R[L^83Q]; read-out: EC50 (pharmacoperone rescue), presence of 1 μM vasopressin, no-wash protocol, absence of doxycycline (n=4)) [nM] | EC50 (hV2R[L^83Q]) [nM] | Ki (V2R; read-out: Ki (antagonist), no reference given) [nM] | Ki (V2R; read-out: Ki of SR121463 (literature value), used to perform the fit) [nM] |
| --- | --- | --- | --- | --- | --- | --- |
| C[C@H]1CCC/C=C/[C@@H]2C[C@H](O)C[C@H]2[C@H](O)/C=C/C(=O)O1 [Brefeldin A] | 43+/−1% |  |  | 270 |  |  |
